pIC50: −log10 of the molar value. Starred links: 1 amine or outer side, 2 acyl side, 3 side chain; linkers in the order of their positions; H or OH if unused. Positions of bridges follow the written chain, without caps; N, C: chain ends. Non-standard residues stand in square brackets, D forms with d. Residues, ends and D or L forms follow the SMILES beside them. ξ: configuration not given here. *: point of attachment. X12 = O=C(O)CCCCCCCCCCCCCCCCCCC(=O)N[C@@H](CCC(=O)NCCCOCCOCCOCCCN*)C(=O)O; X18 = O=C(O)CCCCCCCCCCCCCCC(=O)N[C@@H](CC(=O)NCCCOCCOCCOCCCN*)C(=O)O; Trp(1-CH2COOH) = N[C@@H](Cc1cn(CC(=O)O)c2ccccc12)C(=O)O; X19 = O=C(C1C[C@H](O)CN1[*:1])[*:2]; ξPro(4R-OH) = O=C(O)C1C[C@@H](O)CN1; NMeNle = CCCC[C@H](NC)C(=O)O; NMeA = CN[C@@H](C)C(=O)O; Dab = NCC[C@H](N)C(=O)O; Dap = NC[C@H](N)C(=O)O

This assay deals with T1, PD-L1 (Homo sapiens, UniProt Q9NZQ7).
T1 construct: hPDL1(19-239)-TVMV-His; made in house; host or cells: HEK293T
T1 sequence (Q9NZQ7 with tags, fused parts or gaps): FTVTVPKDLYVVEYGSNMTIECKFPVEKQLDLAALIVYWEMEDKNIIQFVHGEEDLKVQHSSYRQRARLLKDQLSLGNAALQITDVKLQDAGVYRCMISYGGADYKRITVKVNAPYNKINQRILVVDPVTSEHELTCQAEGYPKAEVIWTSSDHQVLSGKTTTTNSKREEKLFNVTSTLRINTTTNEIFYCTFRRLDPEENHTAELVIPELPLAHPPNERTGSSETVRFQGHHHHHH
In words: PD-1/PD-L1 Homogenous Time-Resolved Fluorescence (HTRF) binding assay (PD-1-Ig/PD-L1-His). The conditions noted are these: inhibition of PD-1-Ig binding to PD-L1-TVMV-His; value given as range class; read-out: HTRF IC50. The essentials: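 HTRF competition in dPBS with 0.1% BSA and 0.05% Tween-20: 20 nM PD-1-Ig added after 15 min compound pre-incubation with 10 nM PD-L1-His, then another 15 min. Signal (665/620 nm) after 30 min with APC anti-His (20 nM) and Eu anti-Ig (1 nM).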
For orientation: Time-resolved FRET reads energy transfer from a long-lived donor to a nearby acceptor.
Consider `CCCC[C@H]1C(=O)N(C)[C@@H](CCCC)C(=O)N[C@@H](CC(C)C)C(=O)N[C@H](C(=O)NCC(=O)N[C@@H](CCC(=O)NCCCOCCOCCOCCCNC(=O)C[C@H](NC(=O)CCCCCCCCCCCCCCC(=O)O)C(=O)O)C(=O)O)CSCC(=O)N[C@@H](Cc2ccc(O)cc2)C(=O)N(C)[C@@H](C)C(=O)N[C@@H](CC(N)=O)C(=O)N2CCC[C@@H]2C(=O)N[C@@H](CN)C(=O)N[C@@H](CC(C)C)C(=O)N2C[C@@H](O)CC2C(=O)N[C@@H](Cc2c[nH]c3ccccc23)C(=O)N[C@@H](CCN)C(=O)N[C@@H](Cc2cn(CC(=O)O)c3ccccc23)C(=O)N1C` (stereo partly shown) [Example 11243] ({CH2CO}-Y[NMeA]N[dP][Dap]L[X19]W[Dab][Trp(1-CH2COOH)][NMeNle][NMeNle]LCGE(X18)-OH; thioether N-14), for which the pIC50 is 5.80 to 7.00.

Turning to `CCCC[C@H]1C(=O)N(C)[C@@H](CCCC)C(=O)N[C@@H](CC(C)C)C(=O)N[C@@H](C(=O)N[C@@H](CC(=O)O)C(=O)N[C@@H](CC(=O)NCCCOCCOCCOCCCNC(=O)C[C@H](NC(=O)CCCCCCCCCCCCCCC(=O)O)C(=O)O)C(=O)O)CSCC(=O)N[C@@H](Cc2ccc(O)cc2)C(=O)N(C)[C@@H](C)C(=O)N[C@@H](CC(N)=O)C(=O)N2CCC[C@@H]2C(=O)N[C@@H](CN)C(=O)N[C@@H](CC(C)C)C(=O)N2C[C@@H](O)CC2C(=O)N[C@@H](Cc2c[nH]c3ccccc23)C(=O)N[C@@H](CCN)C(=O)N[C@@H](Cc2cn(CC(=O)O)c3ccccc23)C(=O)N1C` (stereo partly shown) [Example 11244] ({CH2CO}-Y[NMeA]N[dP][Dap]L[X19]W[Dab][Trp(1-CH2COOH)][NMeNle][NMeNle]L[dC]DD(X18)-OH; thioether N-14), the pIC50 was 5.80 to 7.00.

With `CCCC[C@H]1C(=O)N(C)[C@@H](CCCC)C(=O)N[C@@H](CC(C)C)C(=O)N[C@@H](C(=O)N[C@@H](CC(=O)O)C(=O)N[C@@H](CCC(=O)NCCCOCCOCCOCCCNC(=O)C[C@H](NC(=O)CCCCCCCCCCCCCCC(=O)O)C(=O)O)C(=O)O)CSCC(=O)N[C@@H](Cc2ccc(O)cc2)C(=O)N(C)[C@@H](C)C(=O)N[C@@H](CC(N)=O)C(=O)N2CCC[C@@H]2C(=O)N[C@@H](CN)C(=O)N[C@@H](CC(C)C)C(=O)N2C[C@@H](O)CC2C(=O)N[C@@H](Cc2c[nH]c3ccccc23)C(=O)N[C@@H](CCN)C(=O)N[C@@H](Cc2cn(CC(=O)O)c3ccccc23)C(=O)N1C` (stereo partly shown) [Example 11245] ({CH2CO}-Y[NMeA]N[dP][Dap]L[X19]W[Dab][Trp(1-CH2COOH)][NMeNle][NMeNle]L[dC]DE(X18)-OH; thioether N-14), the pIC50 was 7.00 to 8.00.

As to `CCCC[C@H]1C(=O)N(C)[C@@H](CCCC)C(=O)N[C@@H](CC(C)C)C(=O)N[C@H](C(=O)NCC(=O)N[C@@H](CC(=O)O)C(=O)N[C@@H](CCC(=O)NCCCOCCOCCOCCCNC(=O)CC[C@H](NC(=O)CCCCCCCCCCCCCCCCCCC(=O)O)C(=O)O)C(=O)O)CSCC(=O)N[C@@H](Cc2ccc(O)cc2)C(=O)N(C)[C@@H](C)C(=O)N[C@@H](CC(N)=O)C(=O)N2CCC[C@H]2C(=O)N[C@@H](CN)C(=O)N[C@@H](CC(C)C)C(=O)N2C[C@H](O)CC2C(=O)N[C@@H](Cc2c[nH]c3ccccc23)C(=O)N[C@@H](CCN)C(=O)N[C@@H](Cc2cn(CC(=O)O)c3ccccc23)C(=O)N1C` (stereo partly drawn) [Example 11249] ({CH2CO}-Y[NMeA]NP[Dap]L[ξPro(4R-OH)]W[Dab][Trp(1-CH2COOH)][NMeNle][NMeNle]LCGDE(X12)-OH; thioether N-14), the pIC50 is 8.00 to 9.52.

The term pIC50 denotes the negative decadic logarithm of the IC50, by convention in mol/L.

These data come from patent US10633419B2, “Immunomodulators” (BRISTOL-MYERS SQUIBB COMPANY, priority 2014, dated 2020).
